{"source": "patent US20200390850A1", "about": "“PEPTIDES AND USES THEREOF” (LATERAL IP PTY LTD, priority 2018, published 2020)", "key": {"[1]": {"conditions": "in vivo"}, "[2]": {"test": "Ex vivo metabolism of LAT8881 in human whole blood", "assay_type": "in vitro ADME", "procedure": "(§1) Human or rat blood was collected into K2EDTA tubes and approximately 2.94 mL of blood was transferred into a polypropylene tube and kept in a water bath at 37° C. […] At the indicated times, approximately 300 μL of the spiked blood sample was transferred into a vial containing 30 μL of OX Protease Inhibitor Cocktail (Sigma Aldrich; Product No. P2714), mixed well and centrifuged at 4° C. The plasma fraction was then collected, transferred into polypropylene tubes and stored at -80° C. […] […] NO:11)) and vortex-mixed with 200 μL of acetonitrile for 5 min at 1500 rpm. The resulting mixture was then centrifuged at 14000 rpm for 5 min and the supernatant was evaporated at 37° C. under a stream of nitrogen to dryness. The residue was reconstituted in 150 μL of reconstitution solution and approximately 150 μL of the reconstituted sample was transferred to a 96 well-plate for injection into the LC-MS system. […] The mobile phase was (a) 5% acetonitrile/water with 0.1% formic acid, and (b) 95% acetonitrile/water with 0.1% formic acid. Eluted peaks were analysed using mass spectrometry. For the analysis of LAT9998 (SEQ ID NO:11), a 5 μL aliquot of each plasma sample was injected into a Shimadzu Nexera UPLC system equipped with a Phenomenex Aeris Peptide XB-C18, 3.6 μm, 150×2.1 mm. The mobile phase was (a) 5% acetonitrile/water with 0.1% formic acid, and (b) 95% acetonitrile/water with 0.1% formic acid. Eluted peaks were analysed using mass spectrometry. Samples were analysed using an AB Sciex QTrap 5500 mass spectrometer with ESI in positive mode. MRM analyses were conducted with Ion Spray (IS) at 5500 V and the Curtain Gas (CUR) was set at 20. Multiple MRM transitions were monitored to ensure the chromatographic peaks observed are from the nominal compound. Results are reported as analyte peak area ratios (normalized versus internal standard peak area)."}, "[3]": {"test": "Ex vivo metabolism of LAT8881 in rat whole blood", "assay_type": "in vitro ADME", "procedure": "as §1"}, "[4]": {"tested_on": "nerve cells in spinal cord slices", "test": "Spontaneous electrical activity in spinal cord slices from Chung model rats", "assay_type": "cell-based, rat", "conditions": "1 μM added to spinal cord slice", "procedure": "Within 2 minutes of addition of 1 μM LATc9991F to the spinal cord slice, this electrical activity was suppressed; * indicates time that LATc9991F was added to the spinal cord slice preparation.\nThis study was undertaken to assess the effect of LATc9991F (SEQ ID NO:10) on spontaneous electrical activity on spinal cord slices from Chung model rats with confirmed neuropathic pain. LATc9991F is a non-human variant of LAT9991F that is derived from the feline, canine and equine variants of human growth hormone, as described in WO 2013/082667.\nBriefly, spinal cord slices were prepared from Chung model rats with confirmed neuropathic pain symptoms, and spontaneous electrical activity was measured as in Example 1. […] Within 2 minutes of addition of LATc9991F to the slice, this electrical activity was suppressed by LATc9991F."}, "Lamina I or II neurones": {"tested_on": "Lamina I or II neurones", "test": "Whole-cell patch clamp on spinal cord slices with intact dorsal root afferents: evoked post-synaptic currents", "assay_type": "cell-based, rat", "conditions": "comparator; data not shown", "procedure": "An in vitro spinal cord slice with intact dorsal root afferents combined with single-cell whole-cell patch clamp electrophysiological recording techniques was used to assess the electrophysiological properties of the peptide having the amino acid sequence of SEQ ID NO:2.\nSpinal cord slices were prepared from chronic nerve constriction models of neuropathic pain (Chung models) and tested against the peptide of SEQ ID NO:2.\nThe spinal nerve ligation model (Chung model) was first reported by Kim and Chung (1992; Pain, 50(3):355-63) and involves a single tight ligation of the L5 spinal nerve. […] This model has been used as a “gold standard’ model for assessing the efficacy of novel compounds targeting neuropathic pain.\nAdult male Sprague-Dawley rats, 8-9 weeks old, weighing 220-250 g at the time of surgery, were purchased from Charles River UK Ltd. The animals were housed in groups of 4 in an air-conditioned room on a 12-hour light/dark cycle. […] The baseline paw withdrawal threshold (PWT) was examined using a series of graduated von Frey hairs for 3 consecutive days before surgery and re-assessed on the 6th to 8th day after surgery and on the 12th to 14th day after surgery before drug dosing Each rat was anaesthetized with 5% isoflurane mixed with oxygen (2 L per min) followed by an intramuscular (i.m.) injection of ketamine 90 mg/kg plus xylazine 10 mg/kg. […]"}, "[5]": {"tested_on": "rats with CFA-induced inflammation", "test": "Paw withdrawal threshold in CFA-induced inflammatory (nociceptive) pain", "assay_type": "in vivo, rat", "conditions": "3 mg/kg body weight; at 1 and 2 hours after administration", "procedure": "Briefly, rats were anaesthetized with 3% isoflurane mixed with 97% oxygen. The left paw was injected with 0.05 ml CFA emulsion (F5881, Sigma-Aldrich) in saline (CFA:saline=1:1, vol./vol.). After CFA injection, the animals were returned to their home cages. Regular observations were be carried out to monitor the conditions of the animals after injection."}, "Chung rats": {"tested_on": "Chung rats", "test": "Paw withdrawal threshold in nerve constriction model of neuropathic pain (Chung model)", "assay_type": "in vivo, rat", "conditions": "for paw withdrawal threshold of ipsilateral paw: vs vehicle", "procedure": "Briefly, adult male Sprague-Dawley rats, 8-9 weeks old, weighing 220-250 g at the time of surgery, were purchased from Charles River UK Ltd.\nThe animals were housed in groups of 4 in an air-conditioned room on a 12-hour light/dark cycle. Food and water were available ad libitum. They were allowed to acclimatise to the experimental environment for three days by leaving them on a raised metal mesh for at least 40 min. The baseline paw withdrawal threshold (PWT) was examined using a series of graduated von Frey hairs for 3 consecutive days before surgery and re-assessed on the 6th to 8th day after surgery and on the 12th to 14th day after surgery before drug dosing.\nEach rat was anaesthetized with 5% isoflurane mixed with oxygen (2 L per min) followed by an intramuscular (i.m.) injection of ketamine 90 mg/kg plus xylazine 10 mg/kg. The back was shaved and sterilized with povidone-iodine. The animal was placed in a prone position and a para-medial incision was made on the skin covering the L4-6 level. The L5 spinal nerve was carefully isolated and tightly ligated with 6/0 silk suture. The wound was then closed in layers after a complete hemostasis. A single dose of antibiotics (Amoxipen, 15 mg/rat, i.p.) was routinely given for prevention of infection after surgery. The animals were placed in a temperature-controlled recovery chamber until fully awake before being returned to their home cages.\nThe vehicle (1% DMSO in PBS) and LAT8881 (AOD9604, GL449; provided by Lateral Pharma Pty Ltd) was administrated intramuscularly (i.m.) into the leg of the side contralateral to the site of injury. Dosing was carried out by a second experimenter. The rats with validated neuropathic pain state were randomly divided into 5 experimental groups: 1 ml/kg vehicle, 0.1, 0.5, 1 and 5 mg/kg LAT8881.\nEach group had 8 animals. The animals were placed in individual Perspex boxes on a raised metal mesh for at least 40 minutes before the test. Starting from the filament of lowest force (about 1 g), each filament was applied perpendicularly to the centre of the ventral surface of the paw until slightly bent for 6 seconds. If the animal withdrew or lifted the paw upon stimulation, then a hair with force immediately lower than that tested was used. If no response was observed, then a hair with force immediately higher was tested. The lowest amount of force required to induce reliable responses (positive in 3 out of 5 trials) was recorded as the value of PWT.\nThe drug test was carried out on the 12th to 14th day after surgery. PWT were assessed before, 1, 2 and 4 hours following drug or vehicle administration. The animals were rested by being returned to their home cages (about 30-60 min) between two neighbouring testing time points. LAT8881 was administered by a single intramuscular injection (IM) in the ipsilateral limb at a dose of about 0.1 mg/kg body weight to about 5 mg/kg body weight.\nLAT9991 was administered by a single intramuscular injection (IM) in the ipsilateral limb at a dose of about 0.1 mg/kg body weight to about 5 mg/kg body weight.\nGabapentin, as a positive control, obtained from Actavis, UK (Lot No. GJ29), was administered orally at 100 mg/2 ml/kg in normal saline. Dosing was carried out by a second experimenter.\nBriefly, LAT9991F was administered orally at a dose of about 1 mg/kg body weight to about 5 mg/kg body weight.\nBriefly, LAT9991 was administered orally at a dose of about 1 mg/kg body weight, 2 mg/kg body weight and 5 mg/kg body weight."}}, "note": "Read-outs that look alike come from different tables or passages of the source. Positions of bridges follow the written chain, without caps; N, C: chain ends. Residues, ends and D or L forms follow the SMILES beside them.", "data": [{"compound": "CC[C@H](C)[C@H](NC(=O)[C@H](CCCNC(=N)N)NC(=O)[C@H](CC(C)C)NC(=O)[C@@H](N)Cc1ccc(O)cc1)C(=O)N[C@H](C(=O)N[C@@H](CCC(N)=O)C(=O)N[C@H]1CSSC[C@@H](C(=O)NCC(=O)N[C@@H](Cc2ccccc2)C(=O)O)NC(=O)[C@H](CO)NC(=O)CNC(=O)[C@H](CCC(=O)O)NC(=O)[C@H](C(C)C)NC(=O)[C@H](CO)NC(=O)[C@H](CCCNC(=N)N)NC1=O)C(C)C", "note": "[LAT8881, YLRIVQCRSVEGSCGF] (H-YLRIVQCRSVEGSCGF-OH; disulfide 7-14; N-terminus and C-terminus assumed)", "values": [{"measurement": "half-life", "setting": "[1]", "value": "< 1", "unit": "min"}, {"measurement": "half-life", "setting": "[2]; human blood, LAT8881-spiked, 37° C., read-out: ex vivo half-life", "value": "3 to 6", "unit": "min"}, {"measurement": "half-life", "setting": "[3]; rat blood, LAT8881-spiked, 37° C., read-out: ex vivo half-life", "value": "3 to 6", "unit": "min"}]}, {"compound": "CC(C)[C@@H]1NC(=O)[C@H](CO)NC(=O)[C@H](CCCNC(=N)N)NC(=O)[C@@H](N)CSSC[C@@H](C(=O)NCC(=O)N[C@@H](Cc2ccccc2)C(=O)O)NC(=O)[C@H](CO)NC(=O)CNC(=O)[C@H](CCC(=O)O)NC1=O", "note": "[LAT9991F, CRSVEGSCGF] (H-CRSVEGSCGF-OH; disulfide 1-8; N-terminus and C-terminus assumed)", "values": [{"measurement": "half-life", "setting": "[2]; human, blood", "value": "> 60", "unit": "min"}, {"measurement": "half-life", "setting": "[3]; rat, blood", "value": "> 60", "unit": "min"}]}, {"compound": "CRRFVESSCA (listed as Canis lupus) [LATc9991F, non-human variant of LAT9991F derived from the feline, canine and equine variants of human growth hormone]", "values": [{"measurement": "spontaneous electrical activity in nerve cells", "setting": "[4]", "value": "suppressed"}, {"measurement": "time after addition within which electrical activity was suppressed", "setting": "[4]", "value": "≤ 2", "unit": "min"}]}, {"compound": "human growth hormone: human growth hormone, comparator in the spinal cord slice recording", "values": [{"measurement": "effect on post-synaptic current", "setting": "Lamina I or II neurones", "value": "no effect"}]}, {"compound": "CN1CC[C@]23c4c5ccc(O)c4O[C@H]2[C@@H](O)C=C[C@H]3[C@H]1C5", "note": "[morphine]", "values": [{"measurement": "analgesic effect on nociceptive pain (paw withdrawal threshold)", "setting": "[5]", "value": "significant analgesic effect"}]}, {"compound": "CRSVEGSC (listed as Homo sapiens) [LAT9998, metabolite of LAT8881]", "values": [{"measurement": "Detection of LAT9998 (peak area ratio) in all samples", "setting": "[2]", "value": "LAT9998 peaks were not detectable"}, {"measurement": "Detection of LAT9998 (peak area ratio) in all samples", "setting": "[3]", "value": "LAT9998 peaks were not detectable"}]}, {"compound": "CRSVEGSCG (listed as Homo sapiens) [LAT9991]", "values": [{"measurement": "analgesic effect compared with gabapentin at 100 mg/kg body weight orally", "setting": "Chung rats; 5 mg/kg body weight PO", "value": "comparable"}, {"measurement": "analgesic effect compared with gabapentin at 100 mg/kg body weight", "setting": "Chung rats; 5 mg/kg body weight i.m.", "value": "comparable"}, {"measurement": "effect on the contralateral paw responses", "setting": "Chung rats; PO", "value": "No effect"}, {"measurement": "time after administration within which effect on paw withdrawal threshold was observed", "setting": "Chung rats; PO", "value": "≤ 1", "unit": "h"}, {"measurement": "time for which effect on paw withdrawal threshold was maintained", "setting": "Chung rats; PO", "value": "at least 4 hours"}, {"measurement": "improvement in paw withdrawal threshold compared with LAT8881", "setting": "Chung rats; PO, vs Example 7", "value": "comparable"}, {"measurement": "effect on the contralateral paw", "setting": "Chung rats; i.m.", "value": "no effect"}, {"measurement": "time after administration within which effect on paw withdrawal threshold was observed", "setting": "Chung rats; i.m.", "value": "≤ 1", "unit": "h"}, {"measurement": "time for which effect on paw withdrawal threshold was maintained", "setting": "Chung rats; i.m.", "value": "at least 4 hours"}, {"measurement": "improvement in paw withdrawal threshold compared with LAT8881", "setting": "Chung rats; i.m., vs Example 5", "value": "comparable"}, {"measurement": "biological activity compared to the parent peptide LAT8881 (magnitude and duration of neuropathic analgesia)", "setting": "Chung rats; nerve constriction model", "value": "equivalent or substantially equivalent"}, {"measurement": "paw withdrawal threshold of ipsilateral paw", "setting": "Chung rats; oral gavage 1, 2 and 5 mg/kg body weight", "value": "significant dose-dependent improvement"}, {"measurement": "paw withdrawal threshold of ipsilateral paw", "setting": "Chung rats; single i.m. injection, about 0.1 to 5 mg/kg body weight", "value": "significant dose-dependent improvement"}]}]}
